Measurements reported in ChEMBL document CHEMBL5579865, “Discovery of Broad-Spectrum Herpes Antiviral Oxazolidinone Amide Derivatives and Their Structure-Activity Relationships” (ACS Med Chem Lett, 2024).
≈ marks a conversion by molar mass, not a printed value.

Test system: not listed separately
Assay: Inhibition of HCMV DNA polymerase extracted from baculovirus infected Sf21 cells using Heterodimeric nucleic acid as substrate preincubated with enzyme for 30 mins followed by substrate and dATP addition measured after 60 mins by biotinylated UTP incorporation based AlphaLISA assay
Parameters: species or system Human betaherpesvirus 5
Details: not given; call rule not given here

SMILES	IC50 [µM]
O=C(Cc1ccc(Cl)cc1)Nc1ccc(CC2COC(=O)N2)cc1 (racemic)	0.34
COc1cc(NC(=O)Cc2c(F)cc(Cl)cc2F)ccc1C[C@H]1COC(=O)N1	0.069
COc1cc(NC(=O)Cc2ccc(Cl)c(F)c2)ccc1C[C@H]1COC(=O)N1	0.097
CN(C(=O)Cc1ccc(Cl)cc1Cl)c1ccc(C[C@H]2COC(=O)N2)cc1	14.6
CC(C(=O)Nc1ccc(C[C@H]2COC(=O)N2)cc1)c1ccc(Cl)cc1 (stereo partly drawn)	7.19
O=C1N[C@@H](Cc2ccc(NS(=O)(=O)Cc3ccc(Cl)cc3)cc2)CO1	104
O=C1N[C@@H](Cc2ccc3c(c2)OCC(Cc2ccc(Cl)cc2)N3)CO1 (stereo partly drawn)	0.49
COc1cc(NC(=O)Cc2ccc(Cl)cc2F)ccc1C[C@H]1COC(=O)N1	0.045
COc1cc(NC(=O)C2CCc3cc(Cl)ccc32)ccc1C[C@H]1COC(=O)N1 (stereo partly drawn)	0.026
O=C(Cc1ccc(Cl)cc1)Nc1ccc(Cn2cncn2)cc1	12.1
CN1C(=O)OC[C@@H]1Cc1ccc(NC(=O)Cc2ccc(Cl)cc2)cc1	2.55
COc1cc(NC(=O)Cc2ccc(C#N)c(F)c2)ccc1C[C@H]1COC(=O)N1	0.046
COc1cc(NC(=O)Cc2ccc(S(F)(F)(F)(F)F)cc2)ccc1C[C@H]1COC(=O)N1	0.944
O=C1NC(Cc2ccc(C(=O)NCc3ccc(Cl)cc3)cc2)CO1 (stereo not drawn)	116
COc1cc(NC(=O)Cc2ccc(C#N)cc2)ccc1C[C@H]1COC(=O)N1	0.052
N#CCc1ccc(NC(=O)Cc2ccc(Cl)cc2)cc1	50.8
CC(C)(c1ccccc1)c1ccc(NC(=O)Cc2ccc(Cl)cc2)cc1	> 133
O=C(Cc1ccc(Cl)cc1)Nc1ccc(CC(F)(F)F)cc1	133

Test system: Human alphaherpesvirus 3
Assay: Antiviral activity against VZV Street infected in human MeWo cells assessed as reduction in viral replication incubated for 72 hrs by qRT-PCR analysis
Assay type: functional, organism-based
Details: not given

SMILES	EC50
CN(C(=O)Cc1ccc(Cl)cc1Cl)c1ccc(C[C@H]2COC(=O)N2)cc1	Not Active
CC(C(=O)Nc1ccc(C[C@H]2COC(=O)N2)cc1)c1ccc(Cl)cc1 (stereo partly drawn)	Not Active
O=C1N[C@@H](Cc2ccc(NS(=O)(=O)Cc3ccc(Cl)cc3)cc2)CO1	Not Active
CN1C(=O)OC[C@@H]1Cc1ccc(NC(=O)Cc2ccc(Cl)cc2)cc1	Not Active
O=C1NC(Cc2ccc(C(=O)NCc3ccc(Cl)cc3)cc2)CO1 (stereo not drawn)	Not Active

Same assay, conditions: Human alphaherpesvirus 3, Street, MeWo, 72 h; read-out: EC50

SMILES	EC50 [µM]
O=C(Cc1ccc(Cl)cc1)Nc1ccc(CC2COC(=O)N2)cc1 (racemic)	2.13
COc1cc(NC(=O)Cc2c(F)cc(Cl)cc2F)ccc1C[C@H]1COC(=O)N1	0.182
COc1cc(NC(=O)Cc2ccc(Cl)c(F)c2)ccc1C[C@H]1COC(=O)N1	0.126
O=C1N[C@@H](Cc2ccc3c(c2)OCC(Cc2ccc(Cl)cc2)N3)CO1 (stereo partly drawn)	3.06
COc1cc(NC(=O)Cc2ccc(Cl)cc2F)ccc1C[C@H]1COC(=O)N1	0.023
COc1cc(NC(=O)C2CCc3cc(Cl)ccc32)ccc1C[C@H]1COC(=O)N1 (stereo partly drawn)	0.24
COc1cc(NC(=O)Cc2ccc(C#N)c(F)c2)ccc1C[C@H]1COC(=O)N1	0.265
COc1cc(NC(=O)Cc2ccc(C#N)cc2)ccc1C[C@H]1COC(=O)N1	0.131

Test system: not listed separately
Assay: Solubility in PBS at pH 7
Assay type: physicochemical
Details: not given

SMILES	solubility [µM]
O=C(Cc1ccc(Cl)cc1)Nc1ccc(CC2COC(=O)N2)cc1 (racemic)	7 (≈ 2.41 µg/mL)
COc1cc(NC(=O)Cc2c(F)cc(Cl)cc2F)ccc1C[C@H]1COC(=O)N1	7 (≈ 2.88 µg/mL)
COc1cc(NC(=O)Cc2ccc(Cl)cc2F)ccc1C[C@H]1COC(=O)N1	153 (≈ 60.1 µg/mL)
COc1cc(NC(=O)C2CCc3cc(Cl)ccc32)ccc1C[C@H]1COC(=O)N1 (stereo partly drawn)	57 (≈ 22.8 µg/mL)

Test system: not listed separately
Assay: Inhibition of VZV DNA polymerase extracted from baculovirus infected Sf21 cells using Heterodimeric nucleic acid as substrate preincubated with enzyme for 30 mins followed by substrate and dATP addition measured after 60 mins by biotinylated UTP incorporation based AlphaLISA assay
Parameters: species or system Human alphaherpesvirus 3
Details: not given

SMILES	IC50 [µM]
O=C(Cc1ccc(Cl)cc1)Nc1ccc(CC2COC(=O)N2)cc1 (racemic)	0.18
COc1cc(NC(=O)Cc2c(F)cc(Cl)cc2F)ccc1C[C@H]1COC(=O)N1	0.046
COc1cc(NC(=O)Cc2ccc(Cl)c(F)c2)ccc1C[C@H]1COC(=O)N1	0.036
CN(C(=O)Cc1ccc(Cl)cc1Cl)c1ccc(C[C@H]2COC(=O)N2)cc1	14.1
CC(C(=O)Nc1ccc(C[C@H]2COC(=O)N2)cc1)c1ccc(Cl)cc1 (stereo partly drawn)	7.73
O=C1N[C@@H](Cc2ccc(NS(=O)(=O)Cc3ccc(Cl)cc3)cc2)CO1	12.7
O=C1N[C@@H](Cc2ccc3c(c2)OCC(Cc2ccc(Cl)cc2)N3)CO1 (stereo partly drawn)	0.35
COc1cc(NC(=O)Cc2ccc(Cl)cc2F)ccc1C[C@H]1COC(=O)N1	0.017
COc1cc(NC(=O)C2CCc3cc(Cl)ccc32)ccc1C[C@H]1COC(=O)N1 (stereo partly drawn)	0.02
O=C(Cc1ccc(Cl)cc1)Nc1ccc(Cn2cncn2)cc1	4.5
CN1C(=O)OC[C@@H]1Cc1ccc(NC(=O)Cc2ccc(Cl)cc2)cc1	1.84
COc1cc(NC(=O)Cc2ccc(C#N)c(F)c2)ccc1C[C@H]1COC(=O)N1	0.028
COc1cc(NC(=O)Cc2ccc(S(F)(F)(F)(F)F)cc2)ccc1C[C@H]1COC(=O)N1	2.22
O=C1NC(Cc2ccc(C(=O)NCc3ccc(Cl)cc3)cc2)CO1 (stereo not drawn)	26
COc1cc(NC(=O)Cc2ccc(C#N)cc2)ccc1C[C@H]1COC(=O)N1	0.015
N#CCc1ccc(NC(=O)Cc2ccc(Cl)cc2)cc1	40.9
CC(C)(c1ccccc1)c1ccc(NC(=O)Cc2ccc(Cl)cc2)cc1	> 133
O=C(Cc1ccc(Cl)cc1)Nc1ccc(CC(F)(F)F)cc1	77.9

Test system: Human alphaherpesvirus 1
Assay: Antiviral activity against HSV-1 F strain infected in African green monkey Vero cells assessed as reduction in viral replication incubated for 72 hrs by qRT-PCR analysis
Assay type: functional, organism-based
Details: not given

SMILES	EC50
CN(C(=O)Cc1ccc(Cl)cc1Cl)c1ccc(C[C@H]2COC(=O)N2)cc1	Not Active
CC(C(=O)Nc1ccc(C[C@H]2COC(=O)N2)cc1)c1ccc(Cl)cc1 (stereo partly drawn)	Not Active
O=C1N[C@@H](Cc2ccc(NS(=O)(=O)Cc3ccc(Cl)cc3)cc2)CO1	Not Active
CN1C(=O)OC[C@@H]1Cc1ccc(NC(=O)Cc2ccc(Cl)cc2)cc1	Not Active
COc1cc(NC(=O)Cc2ccc(S(F)(F)(F)(F)F)cc2)ccc1C[C@H]1COC(=O)N1	Not Active
O=C1NC(Cc2ccc(C(=O)NCc3ccc(Cl)cc3)cc2)CO1 (stereo not drawn)	Not Active

Same assay, conditions: Human alphaherpesvirus 1, F strain, Vero, 72 h; read-out: EC50

SMILES	EC50 [µM]
O=C(Cc1ccc(Cl)cc1)Nc1ccc(CC2COC(=O)N2)cc1 (racemic)	0.26
COc1cc(NC(=O)Cc2c(F)cc(Cl)cc2F)ccc1C[C@H]1COC(=O)N1	0.564
COc1cc(NC(=O)Cc2ccc(Cl)c(F)c2)ccc1C[C@H]1COC(=O)N1	0.299
O=C1N[C@@H](Cc2ccc3c(c2)OCC(Cc2ccc(Cl)cc2)N3)CO1 (stereo partly drawn)	3.12
COc1cc(NC(=O)Cc2ccc(Cl)cc2F)ccc1C[C@H]1COC(=O)N1	0.214
COc1cc(NC(=O)C2CCc3cc(Cl)ccc32)ccc1C[C@H]1COC(=O)N1 (stereo partly drawn)	0.249
COc1cc(NC(=O)Cc2ccc(C#N)c(F)c2)ccc1C[C@H]1COC(=O)N1	0.494
COc1cc(NC(=O)Cc2ccc(C#N)cc2)ccc1C[C@H]1COC(=O)N1	0.297

Test system: Human alphaherpesvirus 3
Assay: Antiviral activity against VZV Street infected in human MRC5 cells assessed as reduction in viral replication incubated for 72 hrs by qRT-PCR analysis
Assay type: functional, organism-based
Details: Human alphaherpesvirus 3, Street, MRC5, 72 h

SMILES	EC50 [µM]
COc1cc(NC(=O)Cc2ccc(S(F)(F)(F)(F)F)cc2)ccc1C[C@H]1COC(=O)N1	52.7

Test system: not listed separately
Assay: Metabolic stability in human liver microsomes assessed as intrinsic clearance
Assay type: ADME, Microsome
Details: read-out: CLH

SMILES	CLint scaled [L/h/kg]
COc1cc(NC(=O)Cc2ccc(Cl)cc2F)ccc1C[C@H]1COC(=O)N1	0.96
COc1cc(NC(=O)C2CCc3cc(Cl)ccc32)ccc1C[C@H]1COC(=O)N1 (stereo partly drawn)	3.78

Test system: Human alphaherpesvirus 2
Assay: Antiviral activity against HSV-2 G strain infected in African green monkey Vero cells assessed as reduction in viral replication incubated for 72 hrs by qRT-PCR analysis
Assay type: functional, organism-based
Details: not given

SMILES	EC50
CN(C(=O)Cc1ccc(Cl)cc1Cl)c1ccc(C[C@H]2COC(=O)N2)cc1	Not Active
CC(C(=O)Nc1ccc(C[C@H]2COC(=O)N2)cc1)c1ccc(Cl)cc1 (stereo partly drawn)	Not Active
O=C1N[C@@H](Cc2ccc(NS(=O)(=O)Cc3ccc(Cl)cc3)cc2)CO1	Not Active
CN1C(=O)OC[C@@H]1Cc1ccc(NC(=O)Cc2ccc(Cl)cc2)cc1	Not Active
COc1cc(NC(=O)Cc2ccc(S(F)(F)(F)(F)F)cc2)ccc1C[C@H]1COC(=O)N1	Not Active
O=C1NC(Cc2ccc(C(=O)NCc3ccc(Cl)cc3)cc2)CO1 (stereo not drawn)	Not Active

Same assay, conditions: Human alphaherpesvirus 2, G strain, Vero, 72 h; read-out: EC50

SMILES	EC50 [µM]
O=C(Cc1ccc(Cl)cc1)Nc1ccc(CC2COC(=O)N2)cc1 (racemic)	3.85
COc1cc(NC(=O)Cc2c(F)cc(Cl)cc2F)ccc1C[C@H]1COC(=O)N1	0.874
COc1cc(NC(=O)Cc2ccc(Cl)c(F)c2)ccc1C[C@H]1COC(=O)N1	0.647
O=C1N[C@@H](Cc2ccc3c(c2)OCC(Cc2ccc(Cl)cc2)N3)CO1 (stereo partly drawn)	5.24
COc1cc(NC(=O)Cc2ccc(Cl)cc2F)ccc1C[C@H]1COC(=O)N1	0.589
COc1cc(NC(=O)C2CCc3cc(Cl)ccc32)ccc1C[C@H]1COC(=O)N1 (stereo partly drawn)	0.384
COc1cc(NC(=O)Cc2ccc(C#N)c(F)c2)ccc1C[C@H]1COC(=O)N1	0.551
COc1cc(NC(=O)Cc2ccc(C#N)cc2)ccc1C[C@H]1COC(=O)N1	0.789

Test system: Human betaherpesvirus 5
Assay: Antiviral activity against HCMV AD169 infected in human MRC5 cells assessed as reduction in viral replication incubated for 72 hrs in presence of 50 % serum by qRT-PCR analysis
Assay type: functional, organism-based
Details: not given

SMILES	EC50
CN(C(=O)Cc1ccc(Cl)cc1Cl)c1ccc(C[C@H]2COC(=O)N2)cc1	Not Active
CC(C(=O)Nc1ccc(C[C@H]2COC(=O)N2)cc1)c1ccc(Cl)cc1 (stereo partly drawn)	Not Active
O=C1N[C@@H](Cc2ccc(NS(=O)(=O)Cc3ccc(Cl)cc3)cc2)CO1	Not Active
CN1C(=O)OC[C@@H]1Cc1ccc(NC(=O)Cc2ccc(Cl)cc2)cc1	Not Active
COc1cc(NC(=O)Cc2ccc(S(F)(F)(F)(F)F)cc2)ccc1C[C@H]1COC(=O)N1	Not Active
O=C1NC(Cc2ccc(C(=O)NCc3ccc(Cl)cc3)cc2)CO1 (stereo not drawn)	Not Active

Same assay, conditions: Human betaherpesvirus 5, AD169, MRC5, 72 h; read-out: EC50

SMILES	EC50 [µM]
O=C(Cc1ccc(Cl)cc1)Nc1ccc(CC2COC(=O)N2)cc1 (racemic)	12.8
COc1cc(NC(=O)Cc2c(F)cc(Cl)cc2F)ccc1C[C@H]1COC(=O)N1	0.614
COc1cc(NC(=O)Cc2ccc(Cl)c(F)c2)ccc1C[C@H]1COC(=O)N1	1.94
O=C1N[C@@H](Cc2ccc3c(c2)OCC(Cc2ccc(Cl)cc2)N3)CO1 (stereo partly drawn)	13.1
COc1cc(NC(=O)Cc2ccc(Cl)cc2F)ccc1C[C@H]1COC(=O)N1	1.13
COc1cc(NC(=O)C2CCc3cc(Cl)ccc32)ccc1C[C@H]1COC(=O)N1 (stereo partly drawn)	0.56
COc1cc(NC(=O)Cc2ccc(C#N)c(F)c2)ccc1C[C@H]1COC(=O)N1	0.141
COc1cc(NC(=O)Cc2ccc(C#N)cc2)ccc1C[C@H]1COC(=O)N1	0.186
